Reference: patent publication US11419902B2, “Compositions comprising bacterial strains” (4D Pharma Research Limited, priority 2018, dated 2022)

What was measured:
[1] = test system: ERK signalling (phosphorylated ERK1 and 2/total ERK); experiment: ERK signalling in SKMEL31 cell line (Western blot); type: cell-based; settings: SKMEL31, relative to the negative control (YFCA+)
Experimental: (§1) Following 24 h treatment with the appropriate drugs either in presence of 10% bacterial supernatant or absence (YCFA+), protein extracts were obtained by lysing cells in RIPA buffer (R0278; Sigma Aldrich) supplemented with protease inhibitors (cOmplete Protease Inhibitor Cocktail Tablets; Roche, Switzerland) and 1 mM/L sodium orthovanadate, 0.5 mM/L PMSF. Protein quantification was done by the BCA protein assay. Equal amounts of total protein (20 μg/lane) were then separated by SDS-PAGE on 4-15% gradient gel (BioRad) and transferred to polyvinylidene difluoride (PVDF) membranes (Thermo Fisher Scientific, Loughborough). […]
(§2) Proteins of interest were detected with the appropriate HRP-conjugated secondary antibody (1:10,000, Thermo Fisher Scientific, Loughborough), developed with the ECL Western blotting Super Signal PicoPlus substrate (34577; Thermo Fisher Scientific, Loughborough), and visualised in Chemidoc XRS Imager (BioRad).
The effects of the following treatments were assessed on the SKMEL31 melanoma cell line (heterozygous for BRAF V600E): (1) MRx0029; (2) Vemurafenib (VEMU) in YFCA+ medium; (3) VEMU and MRx0029; (4) Azacytidine-C (Aza-c) in YFCA+ medium; (5) Aza-c and MRx0029; (6) VEMU, Aza-c and MRx0029.

[2] = test system: MAP2; experiment: MAP2 gene expression in SKMEL2 cell line (qPCR); type: cell-based; settings: SKMEL2, relative to both negative controls (cell line only, and YCFA+)
Experimental: Cells were plated in 12-well plates at density of 2×10^5 cells/well. After 24 h cells were treated with either DMSO or Vemurafenib (662005; EMD Millipore; VEMU; SKMEL28, SKMEL31, 451Lu, HT29 (1 μM) SKMEL2 (10 μM) or Azacytidine-C (A3656; Sigma Aldrich; AzaC; 5 μg/ml) or both drugs (VEMU+Aza) together, in presence of 10% bacteria supernatants or absence of it (YCFA+). Total RNA was extracted using the RNeasy mini kit (Qiagen, Manchester, UK) according to the manufacturer's instructions, and the RNA concentration was determined by spectrophotometer at 260/280 nm (NanoDrop ND-1000; Thermo Fisher Scientific, Loughborough). For mRNA expression analysis, cDNA was prepared from 2000 ng of total RNA using the High-Capacity cDNA reverse transcription kit (Thermo Fisher, Loughborough) according to the manufacturer's instructions. The reverse transcription reactions were performed in a thermocycler (Biometra, Germany) at 25° C. for 10 min, 37° C. for 120 min, and 85° C. for 5 min Resulting cDNA was amplified in duplicates by the SYBR-Green PCR assay, and products were detected on QuantStudio 6 flex real-time PCR machine (Applied Biosystems, UK) using a standardised profile (initial denaturation of 95° C. for 10 minutes, followed by 40 cycles of 10 seconds of denaturation at 95° C. and 30 seconds of annealing/extension at 65° C.). […]

[3] = test system: ERK signalling (phosphorylated ERK1 and 2/total ERK); experiment: ERK signalling in SKMEL28 cell line (Western blot); type: cell-based; settings: SKMEL28, relative to the negative control (YFCA+)
Experimental: as §1, §2
The effects of the following treatments were assessed on the SKMEL28 melanoma cell line (V600E oncogenic mutation in BRAF): (1) MRx0029; (2) Vemurafenib (VEMU) in YCFA+ medium; (3) VEMU and MRx0029; (4) Azacytidine-C (Aza-c) in YCFA+ medium; (5) Aza-c and MRX0029; (6) VEMU, Aza-c and MRx0029.

[4] = test system: class II HDACs; experiment: Specific HDAC activity analysis (fluorogenic assay kit); type: biochemical; settings: data not shown
Experimental: (§3) Specific HDAC inhibition activity was analysed for HDAC1, 2, 3, 4, 5, 6, 9 using fluorogenic assay kits for each type of HDAC (BPS Bioscience, CA). Assays were conducted according to manufacturer's instructions and each sample were performed in replicates. Cell free supernatants were diluted 1 in 10 and exposed to specific HDAC proteins provided in the kit to maintain consistency between methods.
(§4) The specific HDAC inhibition profile of the test bacteria strain was investigated. Specific HDAC inhibition assays (BPS Bioscience, CA) were carried out for Class I and Class II HDACs. The ability of the bacterial strain to inhibit HDAC enzymes was compared to butyrate, hexanoic and valeric acid.

[5] = target: T1, HDAC1 (Homo sapiens, UniProt Q13547); experiment: as above; type: biochemical; settings: cell free supernatant diluted 1 in 10
T1 construct: purchased BPS Bioscience, CA
T1 sequence (Q13547 whole entry): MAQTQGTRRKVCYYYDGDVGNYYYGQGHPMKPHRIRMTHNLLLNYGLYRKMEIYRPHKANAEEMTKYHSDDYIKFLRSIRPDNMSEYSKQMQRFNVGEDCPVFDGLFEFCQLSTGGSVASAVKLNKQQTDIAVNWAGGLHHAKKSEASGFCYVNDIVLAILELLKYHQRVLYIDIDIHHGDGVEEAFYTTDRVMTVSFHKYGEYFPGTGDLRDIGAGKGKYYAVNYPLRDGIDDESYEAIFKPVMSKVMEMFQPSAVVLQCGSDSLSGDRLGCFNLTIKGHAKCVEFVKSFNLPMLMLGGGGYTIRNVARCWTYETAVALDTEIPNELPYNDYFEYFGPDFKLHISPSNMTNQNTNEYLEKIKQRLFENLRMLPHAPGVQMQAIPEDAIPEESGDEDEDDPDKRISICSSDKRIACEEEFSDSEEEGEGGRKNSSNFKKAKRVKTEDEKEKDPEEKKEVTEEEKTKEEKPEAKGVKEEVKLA
Experimental: as §3, §4

[6] = target: T2, HDAC2 (Homo sapiens, UniProt Q92769); experiment: as above; type: biochemical; settings: cell free supernatant diluted 1 in 10
T2 construct: purchased BPS Bioscience, CA
T2 sequence (Q92769 whole entry): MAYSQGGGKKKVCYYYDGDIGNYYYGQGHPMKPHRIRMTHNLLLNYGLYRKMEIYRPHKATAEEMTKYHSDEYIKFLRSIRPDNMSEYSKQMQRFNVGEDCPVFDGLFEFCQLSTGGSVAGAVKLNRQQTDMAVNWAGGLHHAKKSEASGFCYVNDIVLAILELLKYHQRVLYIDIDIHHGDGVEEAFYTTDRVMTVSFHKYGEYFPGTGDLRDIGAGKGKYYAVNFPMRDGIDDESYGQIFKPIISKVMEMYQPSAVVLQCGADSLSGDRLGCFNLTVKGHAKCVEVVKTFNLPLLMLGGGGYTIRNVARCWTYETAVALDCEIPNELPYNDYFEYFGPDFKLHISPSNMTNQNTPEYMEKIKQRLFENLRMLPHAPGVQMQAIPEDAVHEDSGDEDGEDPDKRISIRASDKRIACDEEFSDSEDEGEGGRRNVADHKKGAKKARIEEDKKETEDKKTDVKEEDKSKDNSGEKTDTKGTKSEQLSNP
Experimental: as §3, §4

[7] = target: T3, HDAC3 (Homo sapiens, UniProt O15379); experiment: as above; type: biochemical; settings: cell free supernatant diluted 1 in 10
T3 construct: purchased BPS Bioscience, CA
T3 sequence (O15379 whole entry): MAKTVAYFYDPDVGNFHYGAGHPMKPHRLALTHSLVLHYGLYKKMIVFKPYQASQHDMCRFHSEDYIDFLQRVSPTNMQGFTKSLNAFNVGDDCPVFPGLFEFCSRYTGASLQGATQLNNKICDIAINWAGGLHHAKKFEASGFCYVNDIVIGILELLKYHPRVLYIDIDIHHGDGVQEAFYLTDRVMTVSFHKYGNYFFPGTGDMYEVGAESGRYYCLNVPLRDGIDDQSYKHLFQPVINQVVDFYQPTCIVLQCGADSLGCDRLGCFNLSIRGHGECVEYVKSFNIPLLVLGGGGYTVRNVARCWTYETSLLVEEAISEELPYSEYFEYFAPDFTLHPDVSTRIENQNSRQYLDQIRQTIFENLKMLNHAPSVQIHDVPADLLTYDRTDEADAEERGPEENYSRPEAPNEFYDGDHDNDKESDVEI
T3 sequence (Q9Y618 395-489 partner limits assumed): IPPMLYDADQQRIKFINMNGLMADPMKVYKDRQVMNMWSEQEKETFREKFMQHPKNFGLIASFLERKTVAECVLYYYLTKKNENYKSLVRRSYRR
Experimental: as §3, §4

[8] = test system: HDAC; experiment: HDAC inhibition on HT-29 cell lysate; type: biochemical
Experimental: Pure cultures of bacteria were grown anaerobically in YCFA+ broth until they reached their stationary growth phase. Cultures were centrifuged at 5,000×g for 5 minutes and the cell-free supernatant (CFS) was filtered using a […] (Millipore, UK). 1 mL aliquots of the CFS were stored at −80° C. until use. Sodium butyrate, hexanoic and valeric acid were obtained from Sigma Aldrich (UK) and suspensions were prepared in YCFA+ broth.
To investigate which metabolites were responsible for the strain-induced HDAC inhibition, different concentrations of hexanoic acid, valeric acid and sodium butyrate were measured for their HDAC inhibition on whole HT-29 cells and on HT-29 cell lysate.

Megasphaera massiliensis MRx0029
ERK signalling [1]: reduced ERK signalling | MAP2 gene expression [2]: increased MAP2 gene expression | ERK signalling [3]: reduced ERK signalling | inhibition of class II HDACs [4]: not as significant | inhibition of HDAC1 [5]: very potent inhibitor | inhibition of HDAC2 [6]: very potent inhibitor | inhibition of HDAC3 [7]: very potent inhibitor | HDAC inhibition on HT-29 cell lysate [8]: strong HDAC inhibition
